Reference: patent publication US6734292B1, “Pseudoerythromycin derivatives” (The Kitasato Institute, priority 2002, dated 2004)
“And” between values parts separate entries of the source, which are not always exact repeats. Equal entries are not always repeated.

How the values were obtained:
[1] = test system: THP-1 cells; assay: enhancing effect for differentiation-induction from human monocyte to macrophage (THP-1/Mφ system, MTT readout); type: cell-based; design: key: ++: enhanced 100% or more; +: enhanced 50-100%; ±: enhanced 25-50%; −: no activity; /: expressed cytoxicity; NT: not tested or under assessment; conditions: in comparison with enhancing action for differentiation-induction of EM 100 μM
Protocol: In order to confirm enhancing effect for differentiation-induction of the compounds of the present invention, the enhancing effect for differentiation-induction from human monocyte to macrophage was assayed. Method is performed as follows. THP-1 cells were collected from cultured liquid by centrifugation, adjusted the concentration to 2×10^5 cells/ml using medium (RPMI 1640) and distributed into the 48-well plate at 500 μl/well. PMA solution 10 μl and sample solution 5 μl were added in each well, stirred with mild shaking and incubated at 37° C. for 72-96 hours under 5% CO2. Further MTT 0.5 mg/ml solution was added at 300 μl/well, and incubated at 37° C. for 3 hours under 5% CO2. Supernatant solution was suctioned using the injection tube, added DMSO 500 μl using automatic continuous injector to dissolve formazan completely and transferred each 100 μl to the 96-well plate. The optical absorption was measured using the plate-reader.

[2] = test system: bleomycin-induced pulmonary fibrosis; assay: suppressive effect against bleomycin-induced pulmonary fibrosis (hydroxyproline levels in tissue); type: in vivo, mice; conditions: BLM group: BLM 100 mg/kg tail vein day-0 only, day-28, individual mice

Row | Compound | activities in THP-1/Mφ system, Treated conc. 0.3 μM [1] | activities in THP-1/Mφ system, Treated conc. 1 μM [1] | activities in THP-1/Mφ system, Treated conc. 3 μM [1] | activities in THP-1/Mφ system, Treated conc. 10 μM [1] | activities in THP-1/Mφ system, Treated conc. 30 μM [1] | Hydroxyproline levels in tissue, Assay result [2] | Hydroxyproline levels in tissue, Weight conversion [2]
1 | CC[C@@H](O)[C@@](C)(O)[C@@H]1OC(=O)[C@H](C)[C@@H](O[C@H]2C[C@@](C)(OC)[C@@H](O)[C@H](C)O2)[C@H](C)[C@@H](O[C@@H]2O[C@H](C)C[C@H](NC(C)C)[C@H]2O)[C@@]2(C)CC(C)=C(O2)[C@@H]1C [EM736, bis-de(3′-N-methyl)-3′-N-(2-propyl)-8,9-anhydro-pseudoerythromycin A 6,9-hemiketal] | − | ± (enhanced 25-50%) | + (enhanced 50-100%) | ++ (enhanced 100% or more) |  |  | 
2 | CCC(O)C(C)(O)C1OC(=O)C(C)C(O)C(C)C(OC2OC(C)CC(N(C)C)C2O)C2(C)CC(C)=C(O2)C1C (stereo not shown) [EM737, de(3-O-cladinosyl)-8,9-anhydro-pseudo erythromycin A 6,9-hemiketal] |  |  | − | + (enhanced 50-100%) |  |  | 
3 | CCC(O)C(C)(O)C1OC(=O)C(C)C(OC2CC(C)(OC)C(O)C(C)O2)C(C)C(OC2OC(C)CC(N(C)CCF)C2O)C2(C)CC(C)=C(O2)C1C (stereo not shown) [EM740] | ± (enhanced 25-50%) | ± (enhanced 25-50%) | + (enhanced 50-100%) | + (enhanced 50-100%) | + (enhanced 50-100%) |  | 
4 | CCC(O)C(C)(O)C1OC(=O)C(C)C(OC2CC(C)(OC)C(O)C(C)O2)C(C)C(OC2OC(C)CC(N(C)CC#N)C2O)C2(C)CC(C)=C(O2)C1C (stereo not shown) [EM742, de(3′-N-methyl)-3′-cyanomethyl-8,9-anhydro-pseudoerythromycin A 6,9-hemiketal] | − | − | − | + (enhanced 50-100%) | + (enhanced 50-100%) |  | 
5 | COC1(C)CC(OC2C(C)C(=O)OC(C(C)=NO)C(C)C3=C(C)CC(C)(O3)C(OC3OC(C)CC(N(C)C)C3O)C2C)OC(C)C1O (stereo not shown) [EM743, de(12-hydroxy)-de[12-(1-hydroxypropyl)]-12-hydroxyoxime-8,9-anhydro-pseudoerythromycin A 6,9-hemiketal] |  | − | ± (enhanced 25-50%) | − |  |  | 
6 | CC[C@@H](O)[C@@](C)(O)[C@@H]1OC(=O)[C@H](C)[C@@H](O[C@H]2C[C@@](C)(OC)[C@@H](O)[C@H](C)O2)[C@H](C)[C@@H](O[C@@H]2O[C@H](C)C[C@H](N(C)CCCO)[C@H]2O)[C@@]2(C)CC(C)=C(O2)[C@@H]1C [EM744] |  | − | − | − |  |  | 
7 | CC[C@@H](O)[C@@](C)(O)[C@@H]1OC(=O)[C@H](C)[C@@H](O[C@H]2C[C@@](C)(OC)[C@@H](O)[C@H](C)O2)[C@H](C)[C@@H](O[C@@H]2O[C@H](C)C[C@H](N(C)CCOC(C)=O)[C@H]2O)[C@@]2(C)CC(C)=C(O2)[C@@H]1C [EM745, de(3′-N-methyl)-3′-N-(2-acetoxyethyl)-8,9-anhydro-pseudoerythromycin A 6,9-hemiketal] | − | − | ++ (enhanced 100% or more) | ++ (enhanced 100% or more) | ++ (enhanced 100% or more) |  | 
8 | COC1(C)CC(OC2C(C)C(=O)OC(C(C)O)C(C)C3=C(C)CC(C)(O3)C(OC3OC(C)CC(N(C)C)C3O)C2C)OC(C)C1O (stereo not shown) [EM746, de[12-(hydroxypropyl)]-8,9-anhydro-pseudo erythromycin A 6,9-hemiketal] | − | ± (enhanced 25-50%) | + (enhanced 50-100%) | + (enhanced 50-100%) | + (enhanced 50-100%) |  | 
9 | CC[C@@H](O)[C@@](C)(O)[C@@H]1OC(=O)[C@H](C)[C@@H](O[C@H]2C[C@@](C)(OC)[C@@H](O)[C@H](C)O2)[C@H](C)[C@@H](O[C@@H]2O[C@H](C)C[C@H](N3CCOCC3)[C@H]2O)[C@@]2(C)CC(C)=C(O2)[C@@H]1C [EM747, de(3′-dimethylamino)-3′-morpholino-8,9-anhydro-pseudoerythromycin A 6,9-hemiketal] |  |  | − | ± (enhanced 25-50%) | ++ (enhanced 100% or more) |  | 
10 | CCC(O)C(C)(O)C1OC(=O)C(C)C(OC2CC(C)(OC)C(O)C(C)O2)C(C)C(OC2OC(C)CC(N(CCCCCCCCCCBr)CCCCCCCCCCBr)C2O)C2(C)CC(C)=C(O2)C1C (stereo not shown) [EM749, bis-de(3′-N-methyl)-3′,3′-N,N-di-(10-bromo-1-decanyl)-8,9-anhydro-pseudoerythromycin A 6,9-hemiketal] |  | ± (enhanced 25-50%) | + (enhanced 50-100%) | + (enhanced 50-100%) | /insolule |  | 
11 | COC1(C)CC(OC2C(C)C(=O)OC(C(C)N)C(C)C3=C(C)CC(C)(O3)C(OC3OC(C)CC(N(C)C)C3O)C2C)OC(C)C1O (stereo not shown) [EM750, de(12-hydroxy)-de[12-(hydroxypropyl)]-12-amino-8,9-anhydro-pseudoerythromycin A 6,9-hemiketal] |  | − | − | ± (enhanced 25-50%) |  |  | 
12 | CCC(O)C(C)(O)C1OC(=O)C(C)C(O)C(C)C(OC2OC(C)CC(NC)C2O)C2(C)CC(C)=C(O2)C1C (stereo not shown) [EM754, de(3-O-cladinosyl) -de(3′-N-methyl) -8,9-anhydrous-pseudoerythromycin A 6,9-hemiketal] |  | − | − |  | + (enhanced 50-100%) |  | 
13 | CC[C@H]1OC(=O)[C@H](C)[C@@H](O[C@H]2C[C@@](C)(OC)[C@@H](O)[C@H](C)O2)[C@H](C)[C@@H](O[C@@H]2O[C@H](C)C[C@H](N(C)C)[C@H]2O)[C@](C)(O)C[C@@H](C)C(=NO)[C@H](C)[C@@H](O)[C@]1(C)O [EM oxim, reference compound] |  | − | ± (enhanced 25-50%) | ± (enhanced 25-50%) | ++ (enhanced 100% or more) |  | 
14 | CC[C@H]1OC(=O)[C@H](C)[C@@H](O[C@H]2C[C@@](C)(OC)[C@@H](O)[C@H](C)O2)[C@H](C)[C@@H](O[C@@H]2O[C@H](C)C[C@H](N(C)C)[C@H]2O)[C@](C)(O)C[C@@H](C)C(=O)[C@H](C)[C@@H](O)[C@]1(C)O [EM, Erythromycin] |  | − | ± (enhanced 25-50%) | + (enhanced 50-100%) | + (enhanced 50-100%) |  | 
15 | bleomycin [BLM, reference compound] |  |  |  |  |  | 785 µmol/L and 733 µmol/L | 7.1 µmol/g and 6.4 µmol/g
